Measured values: patent publication US6486144B1, “Method of treatment of liver tumors and pharmaceutical compositions for use therein” (priority 1997, dated 2002)
Where “and” joins values, the source holds several entries; their conditions need not be identical. Equal values may be shown once. Entries after “also recorded” stand apart in the source; their conditions may differ.

How the values were obtained:
[1] = system: human hepatoma cell line, Hep G2; assay: in vitro growth of human hepatoma cell line Hep G2 (thymidine uptake); type: cell-based; details: for % of control ±SEM: treated for 5 days
Experimental: (§1) Results are % of control ±SEM
(§2) LoVo cells were treated for 10 days, while HepG2 cells were treated for 5 days, with D3 or EB1089.

[2] = type: physicochemical
Experimental: To illustrate the solubility of vitamin D compound in lipiodol radiolabelled vitamin D3 was dissolved in lipiodol at various amounts and the compared to the solubility of radiolabelled vitamin D3.

[3] = Phase 1 trial of hepatic artery infusion: safety, serum calcium; type: in vivo, human
Source text: Regular assay of LFTs, UECs, and calcium and phosphate levels, together with AFP or CEA levels.
Patients 3, 5 and 6 were initially given 2 mcg/day, and then four weeks of 5 mcg/week.
Patient 4 was hypercalcaemic due to a paraneoplastic phenomena prior to treatment, and was therefore given lower dosages.
Patient 7 was commenced on the same dosage regimen as patients 3, 5 and 6 but was withdrawn from the trial prior to starting 10 mcg/day due to progression of their disease.
Calcium levels—looking for the development of hypercalcaemia
UECs and LFTs—looking for unexpected effects upon hepatic and renal function.

[4] = pig model, intravenous versus hepatic arterial infusion, serum calcium; type: in vivo, Female Landrace pigs; details: for calcium levels: pig
Source text: Female Landrace pigs (minimal disease) of weight 15-50 kg.
This infusion was delivered for a one or two week period, after which the animal was not treated for 4 weeks to allow any induced hepatic enzymes to diminish. The animal was then “crossed over” those whose first infusion was via the hepatic artery had their pump connected to an intravenous catheter and vice versa.
Blood was taken regularly and assayed foe calcium levels, LFTs and UECs.

[5] = 2 mcg/day administered orally; cited from earlier work
[6] = system: liver cancers (hepatoma or colorectal cancer metastases); assay: Phase 1 trial of hepatic artery infusion: tumour marker (CEA or AFP) response; type: in vivo, human; details: for patients with at least a limited response (fall in the rate of rise of tumour marker): hepatic artery infusion
Source text: 2. To investigate the effects of such an infusion upon liver cancers by monitoring of tumour marker levels and their rate of rise. […] Regular assay of LFTs, UECs, and calcium and phosphate levels, together with AFP or CEA levels. CEA or AFP levels—looking for evidence of response of the tumours to treatment

[7] = system: human colon cancer cells LoVo; assay: in vitro growth of human colon cancer cells LoVo; type: cell-based; details: treated for 10 days
Experimental: as §1, §2

breast cancer = details: topical, cited from earlier work
PCL = assay: effect of EB1089 on hepatoma cell line PCL; type: cell-based; design: unit not given here; details: day 5, 5% charcoal treated media, repeated experiments
Source text: (§3) (All experiments carried out in 5% charcoal treated media. All day 5. Successive lines of results for a particular cell line are the results for repeated experiment)

HTC = assay: effect of EB1089 on hepatoma cell line HTC; type: cell-based; design: unit not given here; details: day 5, 5% charcoal treated media, repeated experiments
Source text: as §3

NovoKoff = assay: effect of EB1089 on hepatoma cell line NovoKoff; type: cell-based; design: unit not given here; details: day 5, 5% charcoal treated media, repeated experiments
Source text: as §3

Hep 1-6 = assay: effect of EB1089 on hepatoma cell line Hep 1-6; type: cell-based; design: unit not given here; details: day 5, 5% charcoal treated media, repeated experiments
Source text: as §3

Morris = assay: effect of EB1089 on hepatoma cell line Morris; type: cell-based; design: unit not given here; details: day 5, 5% charcoal treated media, repeated experiments
Source text: as §3

SK-Hep = assay: effect of EB1089 on hepatoma cell line SK-Hep; type: cell-based; design: unit not given here; details: day 5, 5% charcoal treated media, repeated experiments
Source text: as §3

human hepatoma = details: cited from earlier work

Compound: C=C1/C(=C\C=C2/CCC[C@]3(C)[C@@H]([C@H](C)CCCC(C)(C)O)CC[C@@H]23)C[C@@H](O)C[C@@H]1O [1.25(OH)2D3, 1.25-dihydroxycholecalciferol]
- inhibition of growth ([1]; Hep G2, 10^−11M): considerably less effective
- inhibition of growth ([1]; Hep G2, reduction in thymidine uptake, dose dependent (FIG. 1)): 95%
- % of control ±SEM ([1]; HepG2, 10^−7 M): 7.1 ± 6.3 % of control
- % of control ±SEM ([1]; HepG2, 10^−8 M): 8.6 ± 6.3 % of control
- % of control ±SEM ([1]; HepG2, 10^−9 M): 13.8 ± 6.4 % of control
- % of control ±SEM ([1]; HepG2, 10^−10 M): 56.6 ± 6.7 % of control
- % of control ±SEM ([1]; HepG2, 10^−11 M): 105.6 ± 6.6 % of control
- amount readily dissolved ([2]; in 1 ml lipiodol): ≥ 2 mg
- hypercalcaemia developed ([3]; hepatic arterial infusion, 15 mcg/day): two out of three patients
- derangement of hepatic or renal function ([3]; hepatic artery infusion, seven patients): Nor did any patient experience any derangement of hepatic or renal function
- unexpected adverse reaction or side effect to the infusion ([3]; hepatic artery infusion, seven patients, listed as 1.25(OH)D3): No patient suffered any unexpected adverse reaction or side effect; also recorded: safe and without unexpected side effects
- dose administered without any observable systemic toxicity ([3]; intraarterially to the liver, patients): at least 10 mcg/day
- calcium level ([3]; patient with pre existing hypercalcaemia (FIG. 3)): did not rise with treatment
- hypercalcaemia during treatment ([3]; patients 1 and 2, lower doses): Neither patients 1 nor 2 became hypercalcaemic
- calcium levels ([4]; hepatic arterial infusion, similar dosage, listed as 1.25(OH)D3): does not affect calcium levels; also recorded: does not produce the hypercalcaemia
- calcium levels ([4]; intravenous infusion): results in hypercalcaemia
- LFTs and UECs ([4]; pigs, either route): normal in all animals throughout
- unexpected reaction ([4]; pigs, either route): No pig suffered any unexpected reaction
- hypercalcaemia, share of patients [5]: 50 % of patients
- patients with at least a limited response (fall in the rate of rise of tumour marker) [6]: 4 of 7 patients
- tumour marker level ([6]; patient 1): dramatically increased at the onset of treatment but this was followed by an equally dramatic fall in the level
- tumour marker level ([6]; patient 2): levelling off of the rate of rise with time
- tumour marker level ([6]; patient 3): dramatic fall in marker level initially, but later this resumed it rise
- rate of rise of CEA levels ([6]; patient 7): appears to have slowed somewhat
- CEA levels rate of rise ([6]; patients 5 and 6): did not appear to have any response to treatment
- % of control ±SEM ([7]; 10^−7 M): 34.2 ± 3.8 % of control
- % of control ±SEM ([7]; 10^−8 M): 53.1 ± 5.0 % of control
- % of control ±SEM ([7]; 10^−9 M): 74.2 ± 6.8 % of control
- % of control ±SEM ([7]; 10^−10 M): 96.5 ± 12.9 % of control
- % of control ±SEM ([7]; 10^−11 M): 127.4 ± 7.1 % of control

Compound: C=C1/C(=C\C=C2/CCC[C@]3(C)[C@@H]([C@H](C)/C=C/[C@@H](O)C4CC4)CC[C@@H]23)C[C@@H](O)C[C@@H]1O [Calcipotriol, calcipotriol]
- patients with a minimal response (breast cancer; of the 19 patients treated): 1 patients
- patients with a significant response (breast cancer; of the 19 patients treated): 3 patients
- patients who became hypercalcaemic during treatment (breast cancer): 2 of the 19 patients

Compound: C=C1/C(=C\C=C2/CCC[C@]3(C)[C@@H]([C@H](C)/C=C/C=C/C(O)(CC)CC)CC[C@@H]23)C[C@@H](O)C[C@@H]1O [EB1089, 1 α.25 (OH)2 22.24 diene 24.26.27 trihomo D3]
- % of control ±SEM ([1]; HepG2, 10^−7 M): 11.2 ± 2.7 % of control
- % of control ±SEM ([1]; HepG2, 10^−8 M): 13.1 ± 2.8 % of control
- % of control ±SEM ([1]; HepG2, 10^−9 M): 13.2 ± 2.7 % of control
- % of control ±SEM ([1]; HepG2, 10^−10 M): 49.1 ± 2.9 % of control
- % of control ±SEM ([1]; HepG2, 10^−11 M): 41.7 ± 3.6 % of control
- effect on hepatoma cell line (PCL; 10^7 M): 98.5 ± 4.5 and 106.0 ± 9.1
- effect on hepatoma cell line (PCL; 10^8 M): 101.6 ± 11.5 and 105.2 ± 4.9
- effect on hepatoma cell line (PCL; 10^9 M): 98.3 ± 6.5 and 95.1 ± 3.3
- effect on hepatoma cell line (PCL; 10^10 M): 92.5 ± 6.6 and 100.1 ± 2.1
- effect on hepatoma cell line (PCL; 10^11 M): 102.5 ± 10.0 and 95.9 ± 2.9
- effect on hepatoma cell line (HTC; 10^7 M): 95.3 ± 17.7 and 57.9 ± 7.2
- effect on hepatoma cell line (HTC; 10^8 M): 86.9 ± 15.0 and 63.9 ± 12.5
- effect on hepatoma cell line (HTC; 10^9 M): 100.4 ± 15.4 and 97.4 ± 13.8
- effect on hepatoma cell line (HTC; 10^11 M): 98.8 ± 15.5 and 95.9 ± 13.0
- effect on hepatoma cell line (HTC; 10^-10 M): 113.0 ± 22.1 and 107.8 ± 12.7
- effect on hepatoma cell line (NovoKoff; 10^7 M): 91.5 ± 14.5 and 84.6 ± 17.0
- effect on hepatoma cell line (NovoKoff; 10^8 M): 106.0 ± 18.1 and 79.0 ± 18.4
- effect on hepatoma cell line (NovoKoff; 10^9 M): 103.7 ± 13.8 and 95.4 ± 18.2
- effect on hepatoma cell line (NovoKoff; 10^11 M): 131.0 ± 15.9 and 92.6 ± 17.6
- effect on hepatoma cell line (NovoKoff; 10^-10 M): 116.3 ± 22.1 and 94.0 ± 21.4
- % of control ±SEM ([7]; 10^−7 M): 40.5 ± 10.7 % of control
- % of control ±SEM ([7]; 10^−8 M): 51.0 ± 10.3 % of control
- % of control ±SEM ([7]; 10^−9 M): 73.3 ± 11.7 % of control
- % of control ±SEM ([7]; 10^−10 M): 55.3 ± 13.7 % of control
- % of control ±SEM ([7]; 10^−11 M): 64.7 ± 12.7 % of control
- effect on hepatoma cell line (Hep 1-6; Hep 1-6, 10^8 M): 63.9 ± 7.0 and 113.4 ± 5.6
- effect on hepatoma cell line (Hep 1-6; Hep 1-6, 10^9 M): 78.1 ± 11.4 and 106.7 ± 5.4
- effect on hepatoma cell line (Hep 1-6; Hep 1-6, 10^11 M): 103.4 ± 9.2 and 98.1 ± 4.3
- effect on hepatoma cell line (Hep 1-6; Hep 1-6, 10^-10 M): 110.8 ± 13.8 and 103.5 ± 4.5
- effect on hepatoma cell line (Morris; 10^7 M): 136.0 ± 12.5 and 80.1 ± 5.2
- effect on hepatoma cell line (Morris; 10^8 M): 134.0 ± 13.3 and 83.3 ± 4.7
- effect on hepatoma cell line (Morris; 10^9 M): 117.8 ± 11.7 and 79.1 ± 4.9
- effect on hepatoma cell line (Morris; 10^10 M): 118.0 ± 11.9 and 88.3 ± 3.9
- effect on hepatoma cell line (Morris; 10^-11 M): 118.0 ± 14.3 and 90.8 ± 5.9
- effect on hepatoma cell line (SK-Hep; 10^8 M): 63.1 ± 16.2 and 71.3 ± 11.8 and 83.1 ± 4.2 and 95.6 ± 12.2
- effect on hepatoma cell line (SK-Hep; 10^9 M): 52.1 ± 8.8 and 61.6 ± 12.2 and 88.4 ± 4.1 and 103.1 ± 12.4
- effect on hepatoma cell line (SK-Hep; 10^11 M): 82 ± 9.2 and 78.8 ± 11.5 and 118.3 ± 26.4 and 66.9 ± 36.9
- effect on hepatoma cell line (SK-Hep; 10^-10 M): 52.1 ± 8.6 and 61.1 ± 16.6 and 91.0 ± 4.5 and 103.8 ± 11.7

Compound: CC/C(=C(\c1ccccc1)c1ccc(OCCN(C)C)cc1)c1ccccc1 [Tamoxifen]
- survival (human hepatoma): significantly, but modestly, improve survival

Compound: C=C1CC[C@H](O)C/C1=C/C=C1\CCC[C@]2(C)[C@@H]([C@H](C)CCCC(C)C)CC[C@@H]12 [vitamin D3, cholecalciferol]
- solubility in lipiodol compared with aqueous medium [2]: substantially more soluble in lipiodol
- patients with at least a limited response (fall in the rate of rise of tumour marker) [6]: 4 of 7 patients
